# According to patent US20220040150A1, “I[…] ADMI[…] FOR DMT-ASSISTED PSYCHOTHERAPY” (Universitatsspital Basel, priority 2020, published 2022):
# “Also recorded” adds a separate entry of the source. Read-outs that look alike come from different tables or passages of the source.
# How the values were obtained:
# [1] = 0.3 mg/kg iv, cited from earlier work
# [2] = cited from earlier work
# [3] = Plasma levels of DMT after intravenous bolus plus continuous infusion (Gouzoulis-Mayfrank et al., 2005); format: in vivo; conditions: human
# Description: Previous research already documented the rapid action of DMT and its safety (Gouzoulis-Mayfrank et al., 2005). A study included 15 healthy volunteers. DMT was given at either a low or a high dose. The low dose consisted of a bolus injection of 0.2 mg/kg (˜15 mg) over 5 minutes followed by a break of one minute, followed by a continuous infusion with 0.015 mg/kg (˜1 mg)/min over 84 minutes. The high dose consisted of a bolus injection of 0.3 mg/kg (˜23 mg) and a continuous infusion with 0.02 mg/kg (˜1.5 mg)/min. The two doses were administered on the same day with a two-hour break between the end of the first and the beginning of the second administration in a single-blind design. Subjective effects were assessed and plasma concentrations of DMT were determined during the perfusion and thereafter. Effects of both doses included vivid alterations of visual, auditory, and tactile perception. […] Most subjects tended to report their experiences during the experiment spontaneously, and they were interested in interpersonal interactions. Mood varied from anxious and tense to expansive and euphoric with mostly vivid verbal, mimic, and psychomotor expression of emotions. Ego-control and insight into the experimental nature of the experience were preserved at the low dose. […]
# [4] = DMT plasma concentrations after intravenous bolus, pilot study (Timmermann et al., 2019); format: in vivo; conditions: human, consistent with measurements of Timmermann 2019 and Strassman 1994, may represent redistribution, read-out: approximate elimination half-life
# Description: A more recent pilot study also assessed plasma concentrations of DMT after intravenous bolus administration of 7-20 mg of DMT in a small number of subjects (Timmermann et al., 2019). DMT blood concentrations were approximately 56 ng/mL 2 minutes after administration of 14 mg (corresponding to approximately 0.2 mg/kg) (Timmermann et al., 2019) in line with the aforementioned data by Strassman (Strassman et al., 1994). The measurements from both studies are consistent with an approximate elimination half-life of 5-10 minutes. However, this may represent rapid redistribution and metabolism and may therefore be shorter than the true elimination half-life (see above). The study only used a bolus, so it is different from the present invention. The above descriptions illustrate that there is limited information on the effects of intravenous DMT administration. However, no study has validly determined the elimination half-life of DMT and other pharmacokinetic parameters and this will be done within the current invention to have better and rational basis on dosing.
# [5] = 2 minutes after iv bolus of 14 mg (approximately 0.2 mg/kg); cited from earlier work
# [6] = target: T1, 5-HT1 receptor (Homo sapiens, UniProt P08908); conditions: in contrast to psilocybin; cited from earlier work
# T1 sequence (P08908 1-422): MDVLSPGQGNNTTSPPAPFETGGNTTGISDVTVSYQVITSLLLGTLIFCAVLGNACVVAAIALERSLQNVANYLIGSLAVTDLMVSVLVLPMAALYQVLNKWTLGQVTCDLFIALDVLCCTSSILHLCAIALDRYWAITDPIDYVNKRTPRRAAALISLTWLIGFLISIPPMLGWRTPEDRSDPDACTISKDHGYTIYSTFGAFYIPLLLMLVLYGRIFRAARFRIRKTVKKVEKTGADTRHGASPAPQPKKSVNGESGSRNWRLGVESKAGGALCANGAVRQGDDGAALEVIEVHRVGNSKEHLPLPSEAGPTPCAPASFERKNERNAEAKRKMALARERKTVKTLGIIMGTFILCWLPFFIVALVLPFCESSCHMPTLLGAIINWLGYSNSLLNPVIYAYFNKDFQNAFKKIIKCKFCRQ
# [7] = test system: healthy subjects; assay: Example 1 clinical study: subjective effects rating over time
# [8] = test system: healthy subjects; assay: Example 1 clinical study: 5D-ASC scale
# [9] = 0.4 mg/kg iv bolus, cited from earlier work
# [10] = test system: healthy subjects; assay: Example 1 clinical study: adverse effects and list of complaints
# Description: Identical placebo (saline) was prepared.
# Adverse effects and list of complaints: The list of complaints (LC) consists of 66 items offering a global score measuring physical and general discomfort (Zerssen, 1976). The LC list is administered before and at the end of the session with reference to complaints throughout the entire session.
# [11] = perfusion with placebo bolus, two subjects
smiles,measurement,setting,value
"CN(C)CCc1c[nH]c2ccccc12 [DMT, N,N-dimethyltryptamine]",blood DMT levels,[1]; after 2 minutes,~70 ng/mL
same,blood DMT levels,[1]; after 5 minutes,~50 ng/mL
same,blood DMT levels,[1]; after 10 minutes,~30 ng/mL
same,blood DMT levels,[1]; after 15 minutes,~18 ng/mL
same,duration of action,[2]; administered parenterally,less than 20 min
same,activity when administered orally,"[2]; oral, without MAO inhibition",inactive
same,half-life,"[3]; in line with subjective effects and Strassman data, read-out: true half-life (likely)",~10 min
same,half-life,"[3]; indicated by the very crude and possibly invalid plasma data, read-out: elimination half-life",~30 min
same,half-life,[4],5 to 10 min
same,DMT blood concentrations,[5],approximately 56 ng/mL
same,affinity to the 5-HT1 receptor,[6],greater affinity
same,duration of the psychedelic state,[7]; 90 minutes perfusion,approximately 90 minutes
same,time to new steady state after starting the perfusion,[7]; available data from Example 1,approximately 20 minutes
same,ratings of bad drug effects and anxiety,"[7]; bolus and perfusion, 2-5 minutes after the bolus",small increases
same,ratings of any drug effects,"[7]; bolus and perfusion, mean in three subjects",maximal within seconds
same,ratings of good drug effects,"[7]; bolus and perfusion, three subjects",maximal immediately after the DMT bolus administration and up to 30 minutes
same,bad drug effects and anxiety ratings,[7]; perfusion with placebo bolus,no bad drug effects and no anxiety
same,time over which good drug effects steadily increased after start of the perfusion,[7]; perfusion with placebo bolus,30 min
same,time to disappearance of good drug effects after stopping the perfusion,[7]; perfusion with placebo bolus,less than 10 minutes
same,description of the DMT experience,"[7]; perfusion with placebo bolus, dose used in the example",overall similar to LSD at a moderate dose of 0.05-0.1 mg LSD base
same,time over which any drug effects steadily increased after starting the perfusion,[7]; [11],30 min
same,time to disappearance of effect after perfusion ended at 90 minutes,[7]; [11],less than 10 minutes
same,Anxiety (5D-ASC),[8]; bolus and perfusion,almost absent
same,5D-ASC scores,"[8]; bolus and perfusion compared with perfusion alone, mean in three subjects",more pronouncedly increased 5D-ASC scores
same,5D-ASC ratings,[8]; perfusion with placebo bolus,increased ratings of Oceanic Boundlessness and lower ratings in Anxious Ego-Dissolution and Visionary Restructuralization
same,Blood levels of DMT base,[9]; 2 minutes,~90 ng/mL
same,Blood levels of DMT base,[9]; 5 minutes,~42 ng/mL
same,Blood levels of DMT base,[9]; 10 minutes,~28 ng/mL
same,Blood levels of DMT base,[9]; 15 minutes,~17 ng/mL
same,Blood levels of DMT base,[9]; 30 minutes,~5 ng/mL
same,relevant adverse effects,[10]; Example 1,did not result in relevant adverse effects
same,safety of administration,[10]; Example 1,safe
same,highest dose still well-tolerated by the study population,"[10]; perfusion rate, Example 1",1 mg of DMT/min
same,reported complaints,"[10]; perfusion without bolus, two subjects","lack of appetite; also recorded: tiredness, palpitations, cold feet, and dry mouth"
